From the supplement of paper PMC12137928
Where a name gives a salt, the structure may show the parent alone.

What was measured:
HCT116 [1] = experiment: efficacy (maximum % inhibition of viability vs DMSO); higher = more cytotoxic; details: 72 h
Method in brief: (§1)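 IC50 and maximal efficacy were derived from four-parameter Hill curve fits. The underlying CellTiter-Glo luminescence was scaled so that vehicle equals 0% and positive control equals -100%, and was then pattern-corrected. HCT116 cells had been seeded in 1536-well plates at 250 per well.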

HCT116 [2] = details: 72 h
Method in brief: as §1

Row | SMILES | efficacy (HCT116 [1]; ICRF193 200 nM) | IC50 cell viability (HCT116 [2]; ICRF193 0 nM) | IC50 cell viability (HCT116 [2]; ICRF193 200 nM) | efficacy (HCT116 [1]; ICRF193 0 nM)
1 | CCCCC1(COC(=O)CCC(=O)O)C(=O)N(c2ccccc2)N(c2ccccc2)C1=O [Suxibuzone] | 58.2% | > 45.8 µM | 25.9 µM | 
2 | COC1=C(OC)C(=O)C(CCCCCCCCCCO)=C(C)C1=O [Idebenone] | 56.6% | 20.6 µM | 20.6 µM | 49.5%
3 | OC(c1cc(C(F)(F)F)nc2c(C(F)(F)F)cccc12)C1CCCCN1 (centres undefined) [Mefloquine hydrochloride] | 98% | 23.1 µM | 23.1 µM | 116%
4 | CN(C)CCC=C1c2ccccc2CCc2ccccc21 [Amitriptyline hydrochloride] | 51.6% | > 45.8 µM | 18.3 µM | 
5 | Oc1cccc(-c2c3nc(c(-c4cccc(O)c4)c4ccc([nH]4)c(-c4cccc(O)c4)c4nc(c(-c5cccc(O)c5)c5ccc2[nH]5)CC4)C=C3)c1 [Temoporfin] | 46% | > 45.8 µM | 25.9 µM | 
6 | N=C(N)c1ccc(OCCCOc2ccc(C(=N)N)cc2Br)c(Br)c1 [Dibromopropamidine dihydrochloride] | 51.6% | > 45.8 µM | 18.3 µM | 
7 | NS(=O)(=O)c1cc2c(cc1C(F)(F)F)NC(Cc1ccccc1)NS2(=O)=O (centres undefined) [Bendroflumethiazide] | 68.8% | > 45.8 µM | 0.92 µM | 
8 | CN(C)C(=S)SSC(=S)N(C)C [Thiram] | 82.8% | > 45.8 µM | 29.1 µM | 
9 | CC(CN1c2ccccc2Sc2ccc(S(=O)(=O)N(C)C)cc21)N(C)C (centres undefined) [Fonazine] | 70.3% | 22.4 µM | 35.5 µM | 56%
10 | C[C@@H](NCCCc1cccc(C(F)(F)F)c1)c1cccc2ccccc12 [Cinacalcet hydrochloride] | 94.6% | 20.6 µM | 20.6 µM | 87.6%
11 | COc1ccc2cc3[n+](cc2c1OC)CCc1cc2c(cc1-3)OCO2 [Berberine] | 56.1% | 23.1 µM | 10.3 µM | 50.1%
12 | CCCCN(CCCC)CC(O)c1cc(Cl)cc2c1-c1ccc(Cl)cc1/C2=C/c1ccc(Cl)cc1 (centres undefined) [Lumefantrine] | 113% | 23.1 µM | 18.3 µM | 120%
13 | COc1ccc2c(c1)OC(C)(C)C(c1ccccc1)C2c1ccc(OCCN2CCCC2)cc1 (centres undefined) [Ormeloxifene] | 81.5% | 20.6 µM | 18.3 µM | 91%
14 | CC(=O)Oc1ccccc1C(=O)Nc1ncc([N+](=O)[O-])s1 [Nitazoxanide] | 122% | 13 µM | 18.3 µM | 104%
15 | O[C@@H](CNC[C@H](O)[C@H]1CCc2cc(F)ccc2O1)[C@@H]1CCc2cc(F)ccc2O1 (racemic) [rac Nebivolol hydrochloride] | 98.2% | 29.1 µM | 20.6 µM | 121%
16 | CC(=O)N(O)CCCCCNC(=O)CCC(=O)N(O)CCCCCNC(=O)CCC(=O)N(O)CCCCCN [Deferoxamine mesylate] | 105% | 29.1 µM | 29.1 µM | 99.1%
17 | COC(=O)[C@H](c1ccccc1Cl)N1CCc2sccc2C1 [Clopidogrel bisulfate] | 76.8% | 18.3 µM | 23.1 µM | 67.2%
18 | Nc1ccn([C@@H]2O[C@H](CO)[C@@H](O)C2(F)F)c(=O)n1 [Gemcitabine] | 56% | 0.092 µM | 0.0461 µM | 53.5%
19 | CN(C)CCC=C1c2ccccc2C(C)(C)c2ccccc21 [Melitracen hydrochloride] | 61.4% | > 45.8 µM | 29.1 µM | 
20 | [O-][n+]1ccccc1SSc1cccc[n+]1[O-] [Dipyrithione] | 74.7% | 1.42 µM | 1.27 µM | 83.9%
21 | CCCCCCNC(=O)n1cc(F)c(=O)[nH]c1=O [Carmofur] | 92% | 10.3 µM | 8.2 µM | 87.1%
22 | CO[C@H]1C[C@H](O[C@H]2[C@H](C)O[C@@H](O[C@@H]3/C(C)=C/C[C@@H]4C[C@@H](C[C@]5(C=C[C@H](C)[C@@H](C6CCCCC6)O5)O4)OC(=O)[C@@H]4C=C(C)[C@@H](O)[C@H]5OC/C(=C\C=C\[C@@H]3C)[C@]54O)C[C@@H]2OC)O[C@@H](C)[C@@H]1O [DORAMECTIN] | 106% | 13 µM | 7.3 µM | 112%
23 | O=C(CCCN1CCC(O)(c2ccc(Br)cc2)CC1)c1ccc(F)cc1 [Bromperidol] | 55.1% | 18.3 µM | 20.6 µM | 44.8%
24 | COC(=O)C1=C(C)NC(C)=C(C(=O)OCC(C)C)C1c1ccccc1[N+](=O)[O-] (centres undefined) [Nisoldipine] | 77.8% | 18.3 µM | 18.3 µM | 55.8%
